{"source": "paper PMC12992107", "about": "(Journal of medicinal chemistry, 2024)", "key": {"[1]": {"test_system": "P. falciparum strain 3D7", "test": "In vitro parasite reduction ratio", "type": "cell-based, Plasmodium falciparum", "settings": "10-fold IC50; 28 days recovery in drug-free medium"}, "[2]": {"settings": "cited from earlier work"}, "[3]": {"settings": "cited from earlier work", "remark": "listed apart in the source"}, "[4]": {"test": "Plasma protein binding, dilution method"}, "[5]": {"test_system": "Plasmodium berghei", "test": "Standard four-day Peters test in P. berghei-infected mice", "settings": "for cured: parasite-free mice on day 30"}, "[6]": {"test_system": "P. falciparum Dd2 Polδ", "test": "Single-step resistance selection assay", "type": "cell-based, Plasmodium falciparum"}, "[7]": {"test_system": "Pf Dd2", "test": "Antiplasmodial in vitro activity, HRP2 ELISA", "type": "cell-based", "settings": "Plasmodium falciparum, DD2, read-out: Pf Dd2 IC50 ± SD"}, "[8]": {"test_system": "Pf NF54", "test": "72 h [3H]hypoxanthine incorporation assay", "type": "cell-based", "settings": "Plasmodium falciparum, NF54, 72 h"}, "[9]": {"test_system": "HeLa cells", "settings": "read-out: HeLa IC50 (n1; n2); previously published; cited from earlier work"}, "[10]": {"test_system": "Plasmodium berghei", "settings": "previously published, cited from earlier work"}, "[11]": {"test": "Plasma stability", "type": "in vitro ADME, human"}, "[12]": {"test_system": "HEK293 cells", "settings": "read-out: HEK293 IC50 (n1; n2); previously published; cited from earlier work"}, "[13]": {"test": "Plasma protein binding, standard equilibrium dialysis assay", "type": "in vitro ADME"}, "[14]": {"test": "Calculation of hepatic clearance and hepatic extraction ratio", "settings": "calculated from in vitro assays"}, "[15]": {"test_system": "RF12 (PH-1263-C)", "test": "microbe, parasite or virus in culture", "type": "cell-based", "settings": "Plasmodium falciparum, 72 h, read-out: IC50, RF12 (PH-1263-C)"}, "[16]": {"test_system": "P. falciparum isolates", "test": "Ex vivo growth inhibition assay of clinical isolates", "type": "cell-based", "settings": "Plasmodium falciparum"}, "[17]": {"test_system": "chloroquine-sensitive and chloroquine-resistant P. falciparum strains", "test": "Initial antiplasmodial in vitro assessment", "type": "cell-based", "settings": "Plasmodium falciparum, read-out: IC50 (range over strains)"}, "[18]": {"test": "Snapshot pharmacokinetics", "type": "in vivo", "settings": "P. berghei mice, single oral administration of 3, 10 and 30 mg/kg"}, "[19]": {"test": "Microsomal binding, equilibrium dialysis", "type": "in vitro ADME", "settings": "human, human liver microsomes, microsomal binding (fraction bound), 1 μM in 0.5 mg/mL HLMs"}, "[20]": {"test": "Chemical stability in aqueous solution", "type": "physicochemical", "settings": "phosphate buffer pH 7.4, room temperature, over 24 h, n = 3"}}, "note": "Read-outs that look alike come from different tables or passages of the source. Marks after values point to notes of the source that are not given here.", "data": [{"smiles": "O=C1C(O)=C([C@H]2CC[C@H](c3ccc(Cl)cc3)CC2)C(=O)c2ccccc21", "note": "[atovaquone, reference compound]", "values": [{"measurement": "exposure time reducing the number of viable parasites to baseline", "setting": "[1]", "value": 120, "unit": "h"}]}, {"smiles": "CCCCN(CCCC)CCC(O)c1cc2c(Cl)cc(Cl)cc2c2cc(C(F)(F)F)ccc12", "note": "(centres unmarked) [Hf, Halofantrine]", "values": [{"measurement": "microsomal stability (60 min), Clint", "setting": "[2]", "value": "Clint = 26.9 μL/min/mg^d"}, {"measurement": "plasma protein binding", "setting": "[3]; plasma", "value": ">99^d %"}]}, {"smiles": "CCc1nc(N)nc(N)c1-c1ccc(Cl)cc1", "note": "[pyrimethamine, reference compound]", "values": [{"measurement": "exposure time reducing the number of viable parasites to baseline", "setting": "[1]", "value": 72, "unit": "h"}]}, {"smiles": "CCC(C)n1ncn(-c2ccc(N3CCN(c4ccc(OCC5COC(Cn6cncn6)(c6ccc(Cl)cc6Cl)O5)cc4)CC3)cc2)c1=O", "note": "(centres unmarked) [itraconazole, reference compound]", "values": [{"measurement": "fraction unbound at 24 h, 25 ng/mL", "setting": "[4]; plasma diluted 1:10 or 1:20 in 0.9% saline", "value": 0.006}]}, {"smiles": "C[C@@H]1CC[C@H]2[C@@H](C)C(=O)O[C@@H]3O[C@@]4(C)CC[C@@H]1[C@]32OO4", "note": "[AS, Artemisinin, reference compound]", "values": [{"measurement": "cured", "setting": "[5]; oral 4 × 30 mg/kg", "value": "0/10"}]}, {"smiles": "CCCCN(CCCC)CC(O)c1cc(Cl)cc2c1-c1ccc(Cl)cc1/C2=C/c1ccc(Cl)cc1", "note": "(centres unmarked) [LUM, Lumefantrine]", "values": [{"measurement": "microsomal stability (60 min), Clint", "setting": "[2]", "value": "Clint = <7 μL/min/mg^d"}, {"measurement": "cured", "setting": "[5]; oral 4 × 30 mg/kg", "value": "3/3"}, {"measurement": "plasma protein binding", "setting": "[3]", "value": ">99^d %"}]}, {"smiles": "Cc1cc(Nc2ccc(S(F)(F)(F)(F)F)cc2)n2nc(C(C)(F)F)nc2n1", "note": "[DSM265, reference compound]", "values": [{"measurement": "day of recrudescence of parasites", "setting": "[6]; 12 nM (3-fold IC50), inoculum 2 × 10^7 per flask, all three replicate flasks", "value": 16, "unit": "days"}]}, {"smiles": "CCN(CC)CCCC(C)Nc1ccnc2cc(Cl)ccc12", "note": "(centres unmarked) [CQ, Chloroquine]", "values": [{"measurement": "IC50", "setting": "[7]", "value": "240 ± 130", "unit": "nM"}, {"measurement": "cured", "setting": "[5]; oral 4 × 30 mg/kg", "value": "0/10"}, {"measurement": "IC50", "setting": "[8]; read-out: IC50, NF54", "value": 11, "unit": "nM"}, {"measurement": "IC50", "setting": "[8]; read-out: Pf NF54 IC50 ± SD", "value": "12 ± 1", "unit": "nM"}]}, {"smiles": "COc1ccc(/N=C(\\N)CC(O)c2cc3c(F)cc(F)cc3c3cc(C(F)(F)F)ccc23)cc1", "note": "(centres unmarked) [1 (TKK129)]", "values": [{"measurement": "IC50", "setting": "[9]", "value": 46100, "unit": "nM"}, {"measurement": "MSD", "setting": "[10]; oral 4 × 3 mg/kg", "value": "euthanized"}, {"measurement": "cured", "setting": "[10]; oral 4 × 3 mg/kg", "value": "0/3"}, {"measurement": "cured", "setting": "[10]; oral 4 × 10 mg/kg", "value": "0/3"}, {"measurement": "cured", "setting": "[10]; oral 4 × 30 mg/kg", "value": "1/3"}, {"measurement": "cured", "setting": "[10]; oral 4 × 50 mg/kg", "value": "2/3"}, {"measurement": "exposure time reducing the number of viable parasites to baseline", "setting": "[1]", "value": "≤ 24", "unit": "h"}, {"measurement": "plasma stability", "setting": "[11]; at 37 °C, time without decrease", "value": 24, "unit": "h at 37 °C"}, {"measurement": "IC50", "setting": "[12]", "value": 36800, "unit": "nM"}, {"measurement": "fraction unbound at 24 h, 25 ng/mL", "setting": "[13]", "value": "< 0.01"}]}, {"smiles": "Cl.N=C(CC(O)c1cc2c(F)cc(F)cc2c2cc(C(F)(F)F)ccc12)Nc1ccc(F)cc1", "note": "(centres unmarked) [2 (TKK130), (Z)-3-(1,3-Difluoro-6-(trifluoromethyl)phenanthrene-9-yl)-N′-(4-fluorophenyl)-3-hydroxypropanimidamid Hydrochlorid]", "values": [{"measurement": "hepatic extraction ratio", "setting": "[14]", "value": 0.17}, {"measurement": "hepatic clearance", "setting": "[14]; hepatic blood flow 1500 mL/min", "value": 0.25, "unit": "L/min"}, {"measurement": "IC50", "setting": "[15]", "value": 4, "unit": "nM"}, {"measurement": "fraction unbound at 24 h, 25 ng/mL", "setting": "[4]; plasma", "value": 0.004}, {"measurement": "IC50", "setting": "[16]; read-out: max IC50", "value": 25.1, "unit": "nM"}, {"measurement": "IC50", "setting": "[16]; read-out: min IC50", "value": 1.4, "unit": "nM"}, {"measurement": "exposure time reducing the number of viable parasites to baseline", "setting": "[1]", "value": "≤ 24", "unit": "h"}, {"measurement": "signs of toxicity during the in vivo studies", "setting": "[5]; mice, oral dosing", "value": "no obvious signs of toxicity"}, {"measurement": "cured", "setting": "[5]; oral 4 × 3 mg/kg", "value": "0/3"}, {"measurement": "cured", "setting": "[5]; oral 4 × 10 mg/kg", "value": "1/3"}, {"measurement": "cured", "setting": "[5]; oral 4 × 30 mg/kg", "value": "3/3"}, {"measurement": "cured", "setting": "[5]; oral 4 × 50 mg/kg", "value": "3/3"}, {"measurement": "half-life at 25 ng/mL", "setting": "[11]; human, plasma", "value": 67, "unit": "h"}, {"measurement": "day on which treated cultures were clear", "setting": "[6]; 9 nM (3-fold IC50), inocula 2 × 10^7 and 2 × 10^9", "value": 4, "unit": "days"}, {"measurement": "parasite growth after selection", "setting": "[6]; 9 nM, inocula 2 × 10^7 and 2 × 10^9, 60 days of recovery time", "value": "no subsequent parasite growth could be observed"}, {"measurement": "IC50", "setting": "[17]", "value": "2 to 12", "unit": "nM"}, {"measurement": "IC50", "setting": "[8]; read-out: IC50, NF54", "value": 12, "unit": "nM"}, {"measurement": "time at which maximum concentration was reached", "setting": "[18]", "value": 4, "unit": "h"}, {"measurement": "fraction unbound at 24 h, 1 μM", "setting": "[19]", "value": 0.026}, {"measurement": "chemical stability", "setting": "[20]", "value": "> 90", "unit": "%"}]}]}
